Patent publication US20190029987A1, “DIMETHYL FUMARATE (DMF) FOR PREVENTION OR TREATMENT OF GOUT, ACNE, DIABETES, VITILIGO AND/OR PYODERMA GANGRENOSUM” (UNIVERSITAT ZURICH, priority 2016, published 2019)

Assays:
NLRP3 inflammasome [1] = target: T1, NLRP3 inflammasome (Homo sapiens, UniProt Q96P20); experiment: Inflammasome activation by nigericin/MSU in differentiated, primed THP-1 cells (IL-1β ELISA, Western blot); type: cell-based; conditions: for accumulation of mature IL-1β in the cells (lysate): THP-1, 10 μM 30 min before nigericin, 2.5 h, FIG. 8D; for IL-1β secretion: THP-1, 10 μM 1 h before 5 μM nigericin or 150 μg/ml MSU, 5 h, FIG. 2B
T1 construct: endogenous in cells
T1 sequence (Q96P20 whole entry): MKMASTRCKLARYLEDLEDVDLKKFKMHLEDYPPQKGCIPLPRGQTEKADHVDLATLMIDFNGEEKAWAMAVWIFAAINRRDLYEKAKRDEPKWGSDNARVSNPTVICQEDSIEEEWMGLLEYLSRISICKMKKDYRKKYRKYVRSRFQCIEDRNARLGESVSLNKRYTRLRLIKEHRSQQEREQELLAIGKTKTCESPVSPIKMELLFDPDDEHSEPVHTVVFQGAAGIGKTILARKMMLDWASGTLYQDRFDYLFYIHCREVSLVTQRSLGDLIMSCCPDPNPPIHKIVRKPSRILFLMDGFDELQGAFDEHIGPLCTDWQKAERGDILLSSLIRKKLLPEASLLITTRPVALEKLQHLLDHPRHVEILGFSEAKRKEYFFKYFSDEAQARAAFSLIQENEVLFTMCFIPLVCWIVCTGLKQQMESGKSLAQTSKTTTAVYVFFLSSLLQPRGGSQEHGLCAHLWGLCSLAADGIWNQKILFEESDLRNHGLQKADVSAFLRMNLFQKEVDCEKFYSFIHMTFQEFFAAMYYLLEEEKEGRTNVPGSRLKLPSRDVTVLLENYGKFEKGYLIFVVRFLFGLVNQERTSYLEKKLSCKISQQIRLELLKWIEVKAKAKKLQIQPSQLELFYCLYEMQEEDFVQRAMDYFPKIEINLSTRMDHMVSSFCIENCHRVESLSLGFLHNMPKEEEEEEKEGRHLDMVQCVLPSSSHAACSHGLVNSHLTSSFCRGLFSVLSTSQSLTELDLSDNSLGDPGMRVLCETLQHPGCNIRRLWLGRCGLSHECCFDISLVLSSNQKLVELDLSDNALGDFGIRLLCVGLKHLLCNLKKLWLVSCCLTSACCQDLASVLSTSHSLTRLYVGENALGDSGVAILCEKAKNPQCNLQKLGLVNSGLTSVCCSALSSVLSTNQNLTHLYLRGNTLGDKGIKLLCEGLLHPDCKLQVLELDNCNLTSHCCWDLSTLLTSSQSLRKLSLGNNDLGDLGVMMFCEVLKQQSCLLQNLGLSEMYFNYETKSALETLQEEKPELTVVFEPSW
Excerpt: To determine the effects of Nrf2 activating compounds on inflammasome activation, the inventors treated keratinocytes with different doses of SFN, tBHQ, DMF or 15d-PGJ2 and irradiated the cells with UVB.
SFN, DMF, 15d-PGJ2, tBHQ, zymosan, ATP, poly(dA:dT), cycloheximide, puromycin, and doxycycline were purchased from Sigma (Munich, Germany), nigericin from Enzo Life Sciences (New York, US-NY), MG132 from Calbiochem (Darmstadt, Germany), and blasticidin from Invivogen (Toulouse, France). Release of IL-1p was determined by ELISA according the instructions of the manufacturer (R&D Systems, Minneapolis, US-MN). MSU crystals were prepared by crystallisation of a supersaturated solution of uric acid under mildly basic conditions. Briefly, uric acid was added to a solution of NaOH, the solution was boiled until the uric acid was dissolved and passed through a filter. NaCl was added and crystallisation was performed at 4° C. Crystals were filtered, then dried using a speedvac, weighted and autoclaved.
(A) HPKs were treated with the indicated concentrations of the Nrf2 activating compound tBHQ irradiated with UVB 30 min later and harvested after 5 h. ELISA measurements were performed for quantification of IL-1β secretion and Western blots for analysis of expression and activation of the indicated proteins. Specific bands are marked with an asterisk. (B) THP-1 cells were differentiated with PMA (27 nM) for 3 d, primed with upLPS (100 ng/ml) overnight, and 1 h before inflammasome activation (5 μM nigericin, 150 μg/ml MSU) treated with SFN (10 μM), 15-PGJ2 (10 μM) or DMF (50 μM) (15-PG: 15-PGJ2). Cells and supernatants were harvested after 5 h and analysed for inflammasome activation by ELISA measurement of IL-1p and Western blots as indicated. (C) Freshly isolated PBMCs from human blood were primed overnight with upLPS (100 ng/ml) and treated with SFN (10 μM), tBHQ (10 μM), DMF (50 μM) or 15-PGJ2 (10 μM) 1 h before inflammasome activation by nigericin (5 μM). ELISA measurement for secretion of IL-1β as readout for inflammasome activation was performed after 5 h. (D) HPKs or (E) differentiated and primed THP-1 cells were pretreated with cycloheximide (CHX, 30 μg/ml) to block protein synthesis for 1 h before SFN (10 μM) was added to the cells and after an additional hour the inflammasome was activated by (D) irradiation with UVB or (E) treatment with nigericin (5 μM). Cells and supernatants were harvested after (D) 6 h or (E) 3.5 h and analysed for inflammasome activation by Western blot as indicated. (A-E) Representative experiments performed at least three times are shown. Statistics: (A-C) Error bars represent the mean±SD of a representative experiment performed in triplicates. One-way ANOVA was performed. **P≤0.01; ***P≤0.001.
(A-C) HPKs were irradiated with (A) UVB or treated with (B) nigericin (5 μM) and cells and supernatants were harvested at different time points as indicated. Western blots for expression and activation of the indicated proteins. Specific bands are marked with an asterisk. (C) Expression of Nrf2 and Nrf2 target genes was determined by qRT-PCR. (D, E) THP-1 cells were differentiated with PMA (27 nM) for 3 d, primed with upLPS (100 ng/ml) overnight and treated with nigericin (5 μM) or MSU (150 μg/ml). Cells and supernatants were harvested at different time points as indicated and analysed for (D) expression and activation of the proteins as indicated by Western blot and (E) expression of Nrf2 and Nrf2 target genes by qRT-PCR. (F) HPKs were transfected with specific siRNAs as indicated (scr: scrambled, c1: caspase-1, K1; Keap1), 2 d later irradiated with UVB or treated with nigericin (5 μM). Cells were harvested after 1 h or 5 h, and lysates were analysed for the expression of the indicated proteins by Western blot.

THP-1 cells = experiment: Pyroptosis in inflammasome activated THP-1 cells (LDH release); type: cell-based, human; conditions: THP-1, 10 μM 30 min before nigericin, 2.5 h, FIG. 8D
Experimental: To determine the effects of Nrf2 activating compounds on inflammasome activation, the inventors treated keratinocytes with different doses of SFN, tBHQ, DMF or 15d-PGJ2 and irradiated the cells with UVB. […] As the Nrf2 activators were added to the cells only 15 to 30 min prior to inflammasome activation, it is unlikely that Nrf2 target genes are involved in inflammasome inhibition.
Supernatants were harvested and after centrifugation (400×g) used for analysis. Cells were lysed in culture medium with 2% Triton X-100 for 10 min, LDH activity was determined according to the manufacturer (Cytotox 96 nonradioactive cytotoxicity assay, Promega, Madison, US-WC).
FIG. 8: (A-C) HPKs were treated with the Nrf2 activating compounds (A) SFN, (B) DMF, and (C) 15d-PGJ2, irradiated with UVB 30 min later and harvested after 5 h. Analogous experiment as described in FIG. 2A for tBHQ. (D) THP-1 cells were differentiated with TPA for 3 d and primed with LPS overnight. Then, cells were treated with the solvent DMSO, SFN (10 μM) or 15-PGJ2 (10 μM). After 30 min the inflammasome was activated by nigericin treatment and cells and supernatants were harvested after 2.5 h. Western blots showing prolL-1β and mature IL-1p in the lysate and supernatant. […] IL-1β was quantified in the supernatant by ELISA and cytotoxicity by LDH release.

[2] = test system: Nrf2 target genes Gstp1, Nqo1 and Srxn1; experiment: Nrf2 target gene expression in liver of treated mice (qRT-PCR); type: in vivo, mouse; conditions: oral gavage 25 mg/kg, FIG. 3C
Experimental: (§1) Monosodium urate (MSU) crystal-induced peritonitis is a mouse model of inflammation and gout, which is dependent on IL-1, IL-1R1, MyD88 and the NLRP3 inflammasome. […] The inventors chose a different way of administration and supplied mice with SFN or DMF by oral gavage to determine a potential anti-inflammatory activity of the Nrf2 activators in vivo (FIG. 3). […] The inventors analysed the cellular infiltrate in the peritoneum 6 h post injection of MSU crystals.
qRT-PCR was performed with the LightCycler 480 SYBR Green Master or the FastStart Universal SYBR Green Master (both Roche, Rotkreuz, Switzerland) using total cellular RNA. Specific primer pairs (Supplementary Table 2) were designed to generate an approximately 150 bp fragment flanking an intron-exon border of the corresponding gene. […]
Mice treated by gavage with (A, B, C) SFN (25 mg/kg) in PBS or (D, E, F) DMF (20 mg/kg) in H2O containing 0.08% methocel and 10% DMSO, vehicle-treated mice served as control. […] Peritonitis was induced by peritoneal injection of 2 mg MSU crystals, (B, E) After 6 h the number of neutrophils of the peritoneal lavage was determined by flow cytornetry. (C, F) At the same time, the liver was isolated and analysed for the expression of the Nrf2 target genes Gstp1, Nqo1 and Srxn1 by qRT-PCR. […]

[3] = test system: Monosodium urate (MSU) crystal-induced peritonitis; experiment: MSU crystal-induced peritonitis mouse model (neutrophils in peritoneal lavage); type: in vivo; conditions: mice, oral gavage 25 mg/kg in PBS for two days, 6 h post 2 mg MSU crystals, vs control mice, FIG. 3B
Experimental: as §1
Mice were challenged with 2 mg of MSU crystals for 6 hours as previously described (Chen et a Olin Invest 2006. 116: 2262-2271).
Mice treated by gavage with (A, B, C) SFN (25 mg/kg) in PBS or (D, E, F) DMF (20 mg/kg) in H2O containing 0.08% methocel and 10% DMSO, vehicle-treated mice served as control. Regime for (A) SFN or (D) DMF treatment. Peritonitis was induced by peritoneal injection of 2 mg MSU crystals, (B, E) After 6 h the number of neutrophils of the peritoneal lavage was determined by flow cytornetry. […] Statistics: Student's t-test. (B, C) n≥3, (E, F) n=7. *P≤0.05; **P≤0.01

[4] = target: caspase-1 / Rbx1 interaction (Homo sapiens, UniProt P29466); conditions: HPKs, 50 μM, harvested 1 h later, FIG. 5C
Sequence of caspase-1 / Rbx1 interaction (P29466 120-404): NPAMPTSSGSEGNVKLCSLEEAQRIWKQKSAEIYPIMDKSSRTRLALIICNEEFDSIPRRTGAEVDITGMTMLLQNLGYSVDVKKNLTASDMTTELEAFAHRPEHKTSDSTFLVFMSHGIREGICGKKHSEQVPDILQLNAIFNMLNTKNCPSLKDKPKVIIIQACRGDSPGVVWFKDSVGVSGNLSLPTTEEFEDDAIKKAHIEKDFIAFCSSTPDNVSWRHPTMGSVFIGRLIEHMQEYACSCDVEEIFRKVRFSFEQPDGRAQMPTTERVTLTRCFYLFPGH
Experimental: To address this point, the inventors performed co-immunoprecipitation (co-IP) experiments with an antibody for caspase-1 and lysates of HPKs. […] In addition, the inventors overexpressed a FLAG-tagged version of caspase-1 in HPKs and precipitated the protease with an ANTI-FLAG M2 Affinity Gel (FIG. 5B).
Co-immunoprecipitation (co-IP) was performed with lysates of HPKs as described (Sollberger et al., J Immunol 2012. 188: 1992-2000). Briefly, HPKs were grown in 10 cm dishes, transfected with siRNA (scr or siRNA targeting Rbx1), and propagated to 80% confluency (3 days), Four dishes were harvested in 150 μl co-IP buffer with complete proteinase inhibitor (Roche, Rotkreuz, Switzerland), respectively. After treatment in a douncer, the lysates were centrifuged (20 min, 17 000×g). The supernatant was diluted 1: 1 with co-IP buffer and incubated with 20 μg antibody (caspase-1 or HA). After centrifugation, 150 μl (50 mg/ml) protein A Sepharose (GE Healthcare, Little Chalfront, UK) was added. After 90 min, the beads were washed four times with co-IP buffer and resuspended in 100 μl 2×loading SDS buffer. Alternatively, co-immunoprecipitation was performed using an ANTI-FLAG® M2 Affinity Gel (Sigma). HPKs were grown in 10 cm dishes and transduced with lentiviral constructs encoding FLAG-tagged caspase-1 or GFP as described above. […]

NLRP3 inflammasome [5] = target: NLRP3 inflammasome (Mus musculus, UniProt Q8R4B8); conditions: BMDCs from wt and Nrf2 knockout mice, 10 μM 1 h before 5 μM nigericin, 4.5 h, FIG. 5D,E
Sequence of NLRP3 inflammasome (Mus musculus, UniProt Q8R4B8) (Q8R4B8 whole entry): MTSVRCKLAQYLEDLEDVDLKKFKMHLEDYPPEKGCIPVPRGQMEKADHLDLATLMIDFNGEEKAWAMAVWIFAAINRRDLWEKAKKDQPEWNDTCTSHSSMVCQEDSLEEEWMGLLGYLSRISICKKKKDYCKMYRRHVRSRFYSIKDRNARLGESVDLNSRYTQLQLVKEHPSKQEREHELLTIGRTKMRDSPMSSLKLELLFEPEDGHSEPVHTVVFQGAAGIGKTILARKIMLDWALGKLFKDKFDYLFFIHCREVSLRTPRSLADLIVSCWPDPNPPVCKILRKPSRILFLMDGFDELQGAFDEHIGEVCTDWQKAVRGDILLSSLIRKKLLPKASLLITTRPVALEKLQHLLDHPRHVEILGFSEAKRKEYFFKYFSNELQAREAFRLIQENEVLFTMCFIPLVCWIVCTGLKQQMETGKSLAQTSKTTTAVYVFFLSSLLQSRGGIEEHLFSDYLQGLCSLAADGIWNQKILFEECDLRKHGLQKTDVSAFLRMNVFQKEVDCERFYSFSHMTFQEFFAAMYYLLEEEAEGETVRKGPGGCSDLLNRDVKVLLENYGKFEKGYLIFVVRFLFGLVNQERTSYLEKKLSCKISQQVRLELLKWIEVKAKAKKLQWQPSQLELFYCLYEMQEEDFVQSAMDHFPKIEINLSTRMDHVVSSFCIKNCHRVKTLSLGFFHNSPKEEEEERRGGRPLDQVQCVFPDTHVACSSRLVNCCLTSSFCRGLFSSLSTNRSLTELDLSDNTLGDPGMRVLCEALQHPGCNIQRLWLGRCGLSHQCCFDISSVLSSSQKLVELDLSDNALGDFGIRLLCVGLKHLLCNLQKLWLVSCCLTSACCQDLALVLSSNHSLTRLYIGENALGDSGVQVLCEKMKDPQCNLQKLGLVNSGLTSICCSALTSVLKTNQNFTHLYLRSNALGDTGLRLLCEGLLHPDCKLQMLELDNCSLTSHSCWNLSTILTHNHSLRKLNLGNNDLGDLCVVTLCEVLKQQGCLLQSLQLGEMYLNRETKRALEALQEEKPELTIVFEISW
Experimental: To address this possibility, the inventors treated BMDCs from wild-type and Nrf2 knockout mice with SFN or vehicle (FIG. 5 D, E).
(D, E) DCs were differentiated from the bone marrow of wt and Nrf2 knockout mice (n=4), primed overnight with upLPS and treated with the solvent DMSO (ctrl) or SFN (10 μM). After 1 h, BMDCs were treated with 5 μM nigericin and harvested 4.5 h later. (D) Western blots for expression and activation of the indicated proteins and (E) ELISA for quantification of secretion of IL-1p. […] IL-1β secretion was determined by ELISA. […] (A-E) Representative experiments performed at least three times are shown. (E) Error bars represent the mean±SD of a representative experiment performed in triplicates.

ASC = conditions: THP1, 10 μM, nigericin 5 μM for 2.5 h, FIG. 5F
Experimental: In order to analyse, at which level SFN blocks inflammasome activation, the inventors determined the formation of ASC specks in SFN-treated and inflammasome activated THP1 cells (FIG. 5F). Formation of ASC specks is an upstream event of inflammasome activation.
ASC specks were analysed as described (Nara et al., Nat Immunol 2013. 14: 1247-1255),
(F) THP1 cells (3 d differentiated with TPA, overnight primed with LPS) were stimulated with SFN (10 μM) or the solvent DMSO and mock-treated or with nigericin (5 μM) for 2.5 h. Lysates were harvested in Triton buffer and analysed for soluble and insoluble (indicating speck formation) ASC or in DSS-containing buffer for detection of ASC monomers, dimers and oligomers by Western blotting. IL-1β secretion was determined by ELISA.

SMILES	accumulation of mature IL-1β in the cells (lysate) (NLRP3 inflammasome [1])	IL-1β secretion (NLRP3 inflammasome [1])	pyroptosis (release of lactate dehydrogenase) (THP-1 cells)	inflammasome inhibition by SFN with protein synthesis blocked by cycloheximide (NLRP3 inflammasome [1]; THP-1, CHX 30 μg/ml 1 h before SFN 10 μM, nigericin 5 μM 1 h later, 3.5 h, FIG. 2E)	dependence of inflammasome inhibition on Keap1 (NLRP3 inflammasome [1]; THP-1 cells with knockout of Keap1, 10 μM pretreatment, nigericin 5 μM, 3.5 h, FIG. 4H)	expression of Nrf2 target genes in the liver [2]	number of neutrophils in the peritoneum [3]	interaction between caspase-1 and Rbx1 (co-IP) [4]	secretion of IL-1β (NLRP3 inflammasome [5])	ASC speck formation / oligomerization (ASC)
CCCCCC=CC=C1C(=O)C=CC1CC=CCCCC(=O)O [15d-PGJ2, 15-deoxy-D-prostaglandin J2]	mature IL-1β did not accumulate	inhibited IL-1β secretion	strongly inhibited pyroptosis							
C[S+]([O-])CCCCN=C=S (stereo not shown) [SFN, sulforaphane]	mature IL-1β did not accumulate	inhibited IL-1β secretion	strongly inhibited pyroptosis	did not prevent inflammasome inhibition	Keap1 independent	increased mRNA expression	significantly reduced	did not prevent the interaction between caspase-1 and Rbx1	completely abolished secretion of the cytokine independently of Nrf2 expression	prevented oligomerization of the adaptor protein
